According to ChEMBL document CHEMBL1201862, “PubChem BioAssay data set” (2004):
Activity calls are given as the source filed them.

Assays:
[1] = target: T1, Mannose-6-phosphate isomerase (Homo sapiens, UniProt P34949); experiment: phosphomannose isomerase inhibition – biochemical, fluorescence intensity, confirmation (AID 1535)
T1 sequence (P34949 whole entry): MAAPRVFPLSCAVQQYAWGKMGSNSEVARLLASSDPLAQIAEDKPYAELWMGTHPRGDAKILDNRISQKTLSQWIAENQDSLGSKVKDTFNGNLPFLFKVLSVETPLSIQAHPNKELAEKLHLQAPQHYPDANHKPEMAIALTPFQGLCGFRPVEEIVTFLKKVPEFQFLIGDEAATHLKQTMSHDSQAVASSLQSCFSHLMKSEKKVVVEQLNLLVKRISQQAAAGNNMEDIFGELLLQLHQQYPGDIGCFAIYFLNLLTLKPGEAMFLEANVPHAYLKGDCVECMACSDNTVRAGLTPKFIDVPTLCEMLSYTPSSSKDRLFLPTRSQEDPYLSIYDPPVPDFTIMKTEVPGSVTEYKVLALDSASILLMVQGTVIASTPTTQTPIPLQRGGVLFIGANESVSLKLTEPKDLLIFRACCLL

[2] = microbe, parasite or virus in culture; type: functional; conditions: Mycobacterium tuberculosis
cells = type: functional
[3] = Vero E6 cell cytotoxicity, dose response, cytotoxicity control for non-replicating M. tuberculosis project, secondary assay (AID 492998); type: functional, VeroE6; conditions: Vero C1008
H9c2 = experiment: cells; type: functional, cell-based; conditions: Rattus norvegicus, H9c2, Myocardium;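 further: confirmatory concentration-response retest of ultra-high-throughput screening hits for modulation of myocardial damage; cell death induced by hydrogen peroxide oxidative stress; compound pretreatment for 60 min then peroxide exposure for 2 h; potency is for protecting the cells against peroxide damage rather than for killing them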
[4] = THP-1 cell cytotoxicity, dose response, cytotoxicity control for non-replicating M. tuberculosis project (AID 489025); type: functional
HeLa = experiment: ATP-based viability loss in HeLa cells – cell-based, CellTiter-Glo luminescence, cherry-pick samples, cytotoxicity control for MITF activator project, dose response (AID 540259); type: functional; conditions: Homo sapiens
Vero = experiment: cells; type: functional; conditions: Chlorocebus sabaeus
Cytochrome P450 3A4 = Cytochrome P450 3A4 (Homo sapiens, UniProt P08684); conditions: Potency;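 further: confirmatory qHTS run detecting inhibitors and substrates of CYP3A4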
Chain of Cytochrome P450 3A4 (P08684 whole entry): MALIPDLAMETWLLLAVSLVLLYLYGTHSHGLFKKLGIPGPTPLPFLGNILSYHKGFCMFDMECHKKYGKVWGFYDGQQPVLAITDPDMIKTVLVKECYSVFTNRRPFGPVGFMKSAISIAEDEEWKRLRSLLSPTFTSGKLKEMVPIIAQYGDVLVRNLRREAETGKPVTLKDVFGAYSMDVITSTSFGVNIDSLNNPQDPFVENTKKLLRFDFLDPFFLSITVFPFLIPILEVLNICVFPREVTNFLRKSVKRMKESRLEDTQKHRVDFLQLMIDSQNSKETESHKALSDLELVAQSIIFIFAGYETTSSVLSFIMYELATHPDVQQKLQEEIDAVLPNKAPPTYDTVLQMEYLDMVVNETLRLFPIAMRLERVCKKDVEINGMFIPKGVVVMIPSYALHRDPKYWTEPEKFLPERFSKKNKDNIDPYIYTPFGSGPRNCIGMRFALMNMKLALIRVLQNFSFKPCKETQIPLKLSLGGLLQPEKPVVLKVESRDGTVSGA

[5] = target: Heat shock protein HSP 90-alpha (Homo sapiens, UniProt P07900); type: functional, organism-based
[6] = Luminescence Cell-Based Dose Retest to Confirm Inhibitors of Cancer Stem Cells. [Related pubchem assays (depositor defined):AID2717, AID2721]; type: functional; conditions: Homo sapiens
[7] = target: T2, Ubiquitin-conjugating enzyme E2 N (Homo sapiens, UniProt P61088); type: functional;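 further: Dose-response confirmation in a TR-FRET assay detecting UBC13-driven polyubiquitin chain formation, inhibition measured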
T2 sequence (P61088 whole entry): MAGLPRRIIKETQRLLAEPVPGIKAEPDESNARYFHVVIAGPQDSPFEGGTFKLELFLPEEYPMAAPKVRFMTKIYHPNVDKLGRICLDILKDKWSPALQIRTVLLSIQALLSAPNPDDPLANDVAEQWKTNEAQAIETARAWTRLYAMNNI

[8] = target: T3, Calpain-2 catalytic subunit (Sus scrofa, UniProt P43367); experiment: m-calpain protease blockers, concentration series – biochemical, fluorogenic peptide substrate, dose response (AID 1420); type: functional
T3 sequence (P43367 whole entry): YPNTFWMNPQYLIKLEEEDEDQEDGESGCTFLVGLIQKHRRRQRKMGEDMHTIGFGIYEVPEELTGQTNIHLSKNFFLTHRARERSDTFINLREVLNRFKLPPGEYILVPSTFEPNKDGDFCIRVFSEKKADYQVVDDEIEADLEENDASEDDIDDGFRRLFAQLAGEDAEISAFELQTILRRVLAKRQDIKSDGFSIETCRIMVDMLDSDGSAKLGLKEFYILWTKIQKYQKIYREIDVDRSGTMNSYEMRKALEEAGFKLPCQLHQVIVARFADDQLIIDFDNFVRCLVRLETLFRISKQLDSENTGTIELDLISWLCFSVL

Caspase-3 = target: T4, Caspase-3 (Homo sapiens, UniProt P42574); type: functional;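 further: Dose-response selectivity test against caspase-3 for candidate inhibitors of sentrin-specific proteases (SENPs)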
T4 sequence (P42574 whole entry): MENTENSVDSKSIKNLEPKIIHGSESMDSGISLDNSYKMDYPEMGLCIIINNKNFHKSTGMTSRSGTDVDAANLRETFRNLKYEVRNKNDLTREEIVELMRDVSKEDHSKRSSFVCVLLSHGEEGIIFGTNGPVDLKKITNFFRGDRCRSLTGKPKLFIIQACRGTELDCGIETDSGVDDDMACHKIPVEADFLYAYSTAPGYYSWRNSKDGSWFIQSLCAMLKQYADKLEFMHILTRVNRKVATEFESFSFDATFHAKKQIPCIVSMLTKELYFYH

[9] = target: T5, Sentrin-specific protease 6 (Homo sapiens, UniProt Q9GZR1); type: functional;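 further: Luminescence-based dose-response confirmatory assay of SENP6 inhibition, following up an ultra-high-throughput screen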
T5 sequence (Q9GZR1 whole entry): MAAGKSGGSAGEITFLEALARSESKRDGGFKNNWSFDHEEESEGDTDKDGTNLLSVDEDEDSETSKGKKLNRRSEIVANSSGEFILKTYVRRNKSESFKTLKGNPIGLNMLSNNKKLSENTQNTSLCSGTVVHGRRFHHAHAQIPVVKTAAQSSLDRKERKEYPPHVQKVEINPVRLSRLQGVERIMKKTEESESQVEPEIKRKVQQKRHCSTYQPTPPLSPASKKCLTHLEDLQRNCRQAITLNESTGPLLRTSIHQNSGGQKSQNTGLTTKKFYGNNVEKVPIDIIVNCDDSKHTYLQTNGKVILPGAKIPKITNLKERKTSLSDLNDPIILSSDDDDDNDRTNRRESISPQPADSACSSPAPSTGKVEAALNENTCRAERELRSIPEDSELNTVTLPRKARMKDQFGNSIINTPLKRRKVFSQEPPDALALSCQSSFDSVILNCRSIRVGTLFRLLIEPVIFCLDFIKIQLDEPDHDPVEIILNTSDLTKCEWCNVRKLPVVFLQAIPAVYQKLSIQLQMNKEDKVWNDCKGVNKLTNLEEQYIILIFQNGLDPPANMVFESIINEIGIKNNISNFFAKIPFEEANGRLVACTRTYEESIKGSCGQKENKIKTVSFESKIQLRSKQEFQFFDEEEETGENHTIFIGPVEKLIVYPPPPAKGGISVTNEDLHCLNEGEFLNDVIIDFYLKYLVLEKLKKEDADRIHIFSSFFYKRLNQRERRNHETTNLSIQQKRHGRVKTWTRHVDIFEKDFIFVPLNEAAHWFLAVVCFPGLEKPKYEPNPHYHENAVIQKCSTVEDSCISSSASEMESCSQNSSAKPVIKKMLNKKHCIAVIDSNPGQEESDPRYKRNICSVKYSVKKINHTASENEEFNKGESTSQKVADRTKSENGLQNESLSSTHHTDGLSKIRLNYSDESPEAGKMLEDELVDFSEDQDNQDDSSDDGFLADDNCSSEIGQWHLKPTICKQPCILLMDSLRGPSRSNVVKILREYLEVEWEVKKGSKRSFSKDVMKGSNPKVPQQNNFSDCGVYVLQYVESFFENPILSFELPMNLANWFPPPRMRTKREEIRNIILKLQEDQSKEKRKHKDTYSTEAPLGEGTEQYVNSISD

[10] = target: T6, Sentrin-specific protease 8 (Homo sapiens, UniProt Q96LD8); type: functional;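 further: luminescence read-out of SENP8 inhibition, dose-response confirmation following an ultra-high-throughput screen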
T6 sequence (Q96LD8 whole entry): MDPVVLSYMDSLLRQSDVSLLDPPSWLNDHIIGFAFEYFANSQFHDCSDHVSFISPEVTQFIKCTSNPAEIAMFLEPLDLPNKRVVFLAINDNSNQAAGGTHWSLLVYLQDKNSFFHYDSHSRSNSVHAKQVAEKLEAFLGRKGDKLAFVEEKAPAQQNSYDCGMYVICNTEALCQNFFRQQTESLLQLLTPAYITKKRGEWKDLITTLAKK

[11] = target: T7, Sentrin-specific protease 7 (Homo sapiens, UniProt Q9BQF6); type: functional;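 further: Luminescence-based dose-response confirmation of ultra-high-throughput screening hits, measuring inhibition of SENP7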
T7 sequence (Q9BQF6 whole entry): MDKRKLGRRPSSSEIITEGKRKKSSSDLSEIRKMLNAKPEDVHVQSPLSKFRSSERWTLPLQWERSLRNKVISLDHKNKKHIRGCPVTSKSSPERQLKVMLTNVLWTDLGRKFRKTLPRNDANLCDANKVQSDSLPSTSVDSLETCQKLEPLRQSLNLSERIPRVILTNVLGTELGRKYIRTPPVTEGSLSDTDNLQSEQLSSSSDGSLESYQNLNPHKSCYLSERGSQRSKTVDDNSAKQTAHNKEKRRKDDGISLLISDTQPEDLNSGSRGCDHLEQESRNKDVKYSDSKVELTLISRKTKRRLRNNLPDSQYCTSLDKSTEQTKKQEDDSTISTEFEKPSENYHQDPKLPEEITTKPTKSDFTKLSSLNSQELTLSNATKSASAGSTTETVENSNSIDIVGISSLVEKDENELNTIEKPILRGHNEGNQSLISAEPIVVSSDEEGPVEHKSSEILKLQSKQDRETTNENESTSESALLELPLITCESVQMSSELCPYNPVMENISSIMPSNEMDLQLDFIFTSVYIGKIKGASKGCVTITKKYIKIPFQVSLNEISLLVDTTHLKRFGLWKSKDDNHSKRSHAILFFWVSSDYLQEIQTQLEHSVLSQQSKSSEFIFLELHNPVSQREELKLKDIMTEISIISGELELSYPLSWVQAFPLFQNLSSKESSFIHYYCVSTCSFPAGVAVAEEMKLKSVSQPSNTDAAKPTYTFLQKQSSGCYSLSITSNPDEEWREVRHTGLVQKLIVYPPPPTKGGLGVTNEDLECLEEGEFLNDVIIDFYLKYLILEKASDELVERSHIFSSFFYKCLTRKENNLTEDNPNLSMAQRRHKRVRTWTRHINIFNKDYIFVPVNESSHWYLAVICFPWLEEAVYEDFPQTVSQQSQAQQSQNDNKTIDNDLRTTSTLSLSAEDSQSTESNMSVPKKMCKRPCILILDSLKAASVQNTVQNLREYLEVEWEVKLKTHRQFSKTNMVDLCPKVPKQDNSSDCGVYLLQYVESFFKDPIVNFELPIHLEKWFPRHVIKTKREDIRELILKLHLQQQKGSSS

Structure (SMILES): Cc1cc(/N=c2\ssnc2Cl)n[nH]1
- IC50 [1]: 5.94 µM (active)

Structure (SMILES): O=C(N/N=C/c1cccc2cccnc12)[C@H]1C[C@@H]1c1ccccc1
- CC50 [2]: > 40 µM (active)
- IC50 (cells): 33.1 µM (active)
- CC50 [3]: > 20 µM (active)
- IC50 (H9c2): 11.2 µM (active)
- CC50 [4]: 32.9 µM (active)

Structure (SMILES): COc1cc(CNCc2ccccn2)ccc1OCc1ccc(Cl)c(Cl)c1
- AC50 (HeLa): 45.5 µM (active)
- CC50 (Vero): > 25 µM (active)

Structure (SMILES): CCOC(=O)C1=CC(OC(CC)CC)C(NC(C)=O)C(N)C1 (stereo not drawn)
- AC50 (Cytochrome P450 3A4): 25.1 µM (inconclusive)

Structure (SMILES): Cc1[nH]c2ccc(C(=O)N3CCN(c4cccc(Cl)c4)CC3)cc2c1C
- AC50 [5]: 7.72 µM (active)

Structure (SMILES): CC1(C)CCCC2(C)C3C(O)CC2(C)C(O)C31 (stereo not drawn)
- AC50 (Cytochrome P450 3A4): 31.6 µM (inconclusive)

Structure (SMILES): O=C(N/N=C\c1ccccc1O)c1ccccc1O
- AC50 (Cytochrome P450 3A4): 6.31 µM (inconclusive)

Structure (SMILES): COc1ccc(N(C(=O)c2ccncc2)S(=O)(=O)c2ccccc2)cc1
- AC50 [5]: 1.77 µM (active)

Structure (SMILES): COc1ccccc1OCc1cc(C(=O)N2CCN(C)C(c3ccccc3)C2)no1 (stereo not drawn)
- AC50 [5]: 4.78 µM (active)

Structure (SMILES): Cc1ccc(O)c(/N=N\c2ccccc2)n1
- AC50 (Cytochrome P450 3A4): 5.01 µM (inconclusive)

Structure (SMILES): CC(C)(C)c1cc(-c2nc(N)nc(N)n2)c(O)c(C(C)(C)C)c1
- CC50 [2]: 38.3 µM (active)
- AC50 [6]: 3.65 µM (active)
- AC50 [5]: 28.9 µM (active)
- IC50 [7]: > 20 µM (inactive)

Structure (SMILES): CC(C)(C)c1ccc(-c2cc(C(=O)NNC(=O)Nc3ccccc3)c3ccccc3n2)cc1
- AC50 (HeLa): 69.9 µM (active)

Structure (SMILES): O=C(Nc1ccc2c(c1)CCC2)c1cccc(S(=O)(=O)Nc2ccccc2Cl)c1
- IC50 [8]: 6.7 µM (not active)
- IC50 (Caspase-3): 70.3 µM (active)
- IC50 [9]: 47.3 µM (active)
- IC50 [10]: 92.9 µM (active)
- IC50 [11]: 23.9 µM (active)

Structure (SMILES): COC(=O)c1ccc2[nH]c(C3(O)CCCCC3)c(C)c2c1
- AC50 (HeLa): 44.3 µM (active)

Structure (SMILES): COc1ccc(/N=c2\ssnc2Cl)cn1
- IC50 [1]: 29.8 µM (active)

Structure (SMILES): COCCNC(=O)C1(CC(C)C)C=CCN1C(=O)OC (stereo not drawn)
- AC50 (Cytochrome P450 3A4): 0.1 µM (inconclusive)
